The structures appear in SMILES notation. Converted amounts (≈) assume the structure as drawn. The source made the active and inactive calls. The rule behind the calls is not given here.

One test has as its system Helicoverpa zea. The experiment in a line: Insecticidal activity against Helicoverpa zea assessed as reduction in growth rate. It counts as functional, organism-based.
Test [1] relates to Carpophilus. Briefly: Antiinsectan activity against adult Carpophilus hemipterus assessed as feeding reduction at 100 ppm administered through test diet relative to control. It counts as functional.
Test [2] has as its system Carpophilus. Briefly: Antiinsectan activity against Carpophilus hemipterus larvae assessed as feeding reduction at 100 ppm administered through test diet relative to control. It counts as functional.
Another test deals with Staphylococcus aureus. The experiment in a line: Antibacterial activity against Staphylococcus aureus at 100 ug/disk by standard disk assay. It counts as functional, organism-based.
In test [3] the test system is Carpophilus. The experiment in a line: Insecticidal activity against Carpophilus hemipterus. It counts as functional, organism-based.
In the next test the test system is MCF7. Briefly: Cytotoxicity against human MCF7 cells. It counts as functional. Particulars: read-out: ED50 (the source's name).
The subject of the next test is Candida albicans. The experiment in a line: Antifungal activity against Candida albicans at 100 ug/disk by standard disk assay. It counts as functional, organism-based.
Another test relates to Bacillus subtilis. Briefly: Antibacterial activity against Bacillus subtilis at 100 ug/disk by standard disk assay. It counts as functional, organism-based.
In a further test the test system is A549. Briefly: Cytotoxicity against human A549 cells. It counts as functional. Particulars: read-out: ED50 (the source's name).
A further test deals with HT-29. Briefly: Cytotoxicity against human HT-29 cells. It counts as functional. Particulars: read-out: ED50 (the source's name).

With `C=CC(C)(C)c1ccc2[nH]c3c(c2c1)C[C@@H]1CC[C@@]2(O)C4=CC(=O)[C@@H]5O[C@]4(CC[C@]2(C)[C@@]31C)OC5(C)C`, the outcome in the test with Helicoverpa zea was Active.
Turning to `COc1cc(C)c2c(OC)cc(=O)oc2c1-c1c(O)cc(C)c2c(OC)cc(=O)oc12`, the result with Carpophilus [1] and in the test with Carpophilus [2] was inactive.
Regarding `COc1cc(CO)c2c(OC)c(-c3c(OC)cc(C)c4c(OC)cc(=O)oc34)c(=O)oc2c1` [AFLAVARIN], the outcome in the test on Staphylococcus aureus, in the test with Candida albicans and in the test with Bacillus subtilis was inactive. The result in the test with Carpophilus [3] was Active. The EC50 in the test on MCF7 stood at 55 µg/mL (≈ 121 µM); with A549, 7.5 µg/mL (≈ 16.5 µM); in the test on HT-29, 5.8 µg/mL (≈ 12.8 µM). Moreover, the values for the Activity in the test on Carpophilus [1] and in the test on Carpophilus [2] were 66% and 53%, respectively.

The values are drawn from ChEMBL document CHEMBL1149731, “Aflavarin and -Aflatrem: New Anti-Insectan Metabolites from the Sclerotia of Aspergillus flavus” (1992).
